Results on four compounds are retold here after article PMC8550792, “Evolution of kinase polypharmacology across HSP90 drug discovery” (Cell Chemical Biology, 2021).

Test in all cases: biochemical
Common to all, as to assay type: biochemical

The target of assay [1] is T1, 382 unique human kinases (Homo sapiens, UniProt P00533, T790M).
T1 construct: purchased Reaction Biology (HotSpot contract assay)
The note with it: kinase EGFR (T790M), compound 10 uM; for remaining activity at 10 µM: read-out: % Enzyme Activity (relative to DMSO controls).

For assay [2], the target named is T2, 382 unique human kinases (Homo sapiens, UniProt P78362).
T2 construct: purchased Reaction Biology (HotSpot contract assay)
T2 sequence (P78362 whole entry): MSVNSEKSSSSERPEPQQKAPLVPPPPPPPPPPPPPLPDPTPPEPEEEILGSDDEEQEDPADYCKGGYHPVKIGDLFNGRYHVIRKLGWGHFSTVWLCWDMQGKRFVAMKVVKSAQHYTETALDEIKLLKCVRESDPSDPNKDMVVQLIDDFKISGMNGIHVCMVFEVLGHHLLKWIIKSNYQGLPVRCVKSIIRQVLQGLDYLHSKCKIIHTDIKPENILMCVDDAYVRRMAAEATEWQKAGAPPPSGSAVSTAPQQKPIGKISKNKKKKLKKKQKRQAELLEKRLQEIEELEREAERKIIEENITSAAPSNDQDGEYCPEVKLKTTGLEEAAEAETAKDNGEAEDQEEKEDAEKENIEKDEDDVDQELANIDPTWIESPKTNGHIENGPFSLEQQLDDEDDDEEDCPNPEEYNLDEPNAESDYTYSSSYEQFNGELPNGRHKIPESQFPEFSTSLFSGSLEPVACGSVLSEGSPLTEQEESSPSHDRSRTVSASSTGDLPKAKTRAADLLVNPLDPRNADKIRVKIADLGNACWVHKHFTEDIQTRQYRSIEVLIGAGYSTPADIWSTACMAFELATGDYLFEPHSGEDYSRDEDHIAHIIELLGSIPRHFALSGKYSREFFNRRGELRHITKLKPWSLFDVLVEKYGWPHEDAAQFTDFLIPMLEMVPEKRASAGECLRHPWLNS
As to conditions: kinase SRPK2, compound 10 uM; for remaining activity at 10 µM: read-out: % Enzyme Activity (relative to DMSO controls).

For assay [3], the target named is T3, 382 unique human kinases (Homo sapiens, UniProt O14757).
T3 construct: purchased Reaction Biology (HotSpot contract assay)
T3 sequence (O14757 1-476): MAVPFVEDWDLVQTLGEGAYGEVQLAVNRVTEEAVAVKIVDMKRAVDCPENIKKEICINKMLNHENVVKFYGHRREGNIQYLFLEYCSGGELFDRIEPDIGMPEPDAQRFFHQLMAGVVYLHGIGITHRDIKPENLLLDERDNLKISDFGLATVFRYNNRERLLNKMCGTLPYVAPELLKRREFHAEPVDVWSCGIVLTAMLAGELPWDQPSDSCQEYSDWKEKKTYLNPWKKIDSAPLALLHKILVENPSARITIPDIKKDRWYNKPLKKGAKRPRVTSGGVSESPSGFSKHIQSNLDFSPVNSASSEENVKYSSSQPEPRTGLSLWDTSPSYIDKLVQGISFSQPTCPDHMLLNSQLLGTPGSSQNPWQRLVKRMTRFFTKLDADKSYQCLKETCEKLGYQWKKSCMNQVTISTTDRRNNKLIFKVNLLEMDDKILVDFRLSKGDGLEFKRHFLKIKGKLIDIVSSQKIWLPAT
The note with it: CHK1, 10 uM; for remaining activity at 10 µM: read-out: % Enzyme Activity (relative to DMSO controls).

The target in assay [4] is T4, 382 unique human kinases (Homo sapiens, UniProt P15056, K601E).
T4 construct: purchased Reaction Biology (HotSpot contract assay)
T4 sequence (P15056 whole entry K601E): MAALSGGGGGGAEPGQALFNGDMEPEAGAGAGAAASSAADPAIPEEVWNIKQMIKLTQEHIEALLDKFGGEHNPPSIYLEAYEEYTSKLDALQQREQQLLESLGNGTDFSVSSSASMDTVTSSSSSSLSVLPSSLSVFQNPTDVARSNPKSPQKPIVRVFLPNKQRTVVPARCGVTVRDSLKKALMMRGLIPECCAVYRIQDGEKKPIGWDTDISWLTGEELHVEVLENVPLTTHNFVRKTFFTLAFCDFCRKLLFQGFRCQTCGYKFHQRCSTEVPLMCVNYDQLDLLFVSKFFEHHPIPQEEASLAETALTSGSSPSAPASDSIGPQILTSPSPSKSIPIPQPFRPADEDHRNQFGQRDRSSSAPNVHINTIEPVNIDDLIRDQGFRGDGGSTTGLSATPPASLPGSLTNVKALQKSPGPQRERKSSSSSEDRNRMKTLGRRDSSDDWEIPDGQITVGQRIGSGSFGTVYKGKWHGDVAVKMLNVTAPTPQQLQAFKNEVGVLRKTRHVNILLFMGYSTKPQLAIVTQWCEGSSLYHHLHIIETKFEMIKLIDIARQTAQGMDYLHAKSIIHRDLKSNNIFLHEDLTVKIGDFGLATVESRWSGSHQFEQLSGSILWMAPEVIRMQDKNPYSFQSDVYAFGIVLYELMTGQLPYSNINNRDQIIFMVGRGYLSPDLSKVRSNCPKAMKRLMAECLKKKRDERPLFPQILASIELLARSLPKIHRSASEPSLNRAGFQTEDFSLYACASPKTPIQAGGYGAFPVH
The note with it: BRAF (K601E), compound at 10 uM, duplicate values; for remaining activity at 10 µM: read-out: % Enzyme Activity (relative to DMSO controls).

Assay [5] concerns the target T5, 382 unique human kinases (Homo sapiens, UniProt P22607, V555M).
T5 construct: purchased Reaction Biology (HotSpot contract assay)
The note with it: FGFR3 (V555M), 10 uM; for remaining activity at 10 µM: read-out: % Enzyme Activity (relative to DMSO controls).

For assay [6], the target named is T6, 382 unique human kinases (Homo sapiens, UniProt O75582).
T6 construct: purchased Reaction Biology (HotSpot contract assay)
The note with it: kinase MSK1/RPS6KA5, compound 10 uM; for remaining activity at 10 µM: read-out: % Enzyme Activity (relative to DMSO controls).

For assay [7], the target named is T7, 382 unique human kinases (Homo sapiens, UniProt Q13470).
T7 construct: purchased Reaction Biology (HotSpot contract assay)
T7 sequence (Q13470 1-666): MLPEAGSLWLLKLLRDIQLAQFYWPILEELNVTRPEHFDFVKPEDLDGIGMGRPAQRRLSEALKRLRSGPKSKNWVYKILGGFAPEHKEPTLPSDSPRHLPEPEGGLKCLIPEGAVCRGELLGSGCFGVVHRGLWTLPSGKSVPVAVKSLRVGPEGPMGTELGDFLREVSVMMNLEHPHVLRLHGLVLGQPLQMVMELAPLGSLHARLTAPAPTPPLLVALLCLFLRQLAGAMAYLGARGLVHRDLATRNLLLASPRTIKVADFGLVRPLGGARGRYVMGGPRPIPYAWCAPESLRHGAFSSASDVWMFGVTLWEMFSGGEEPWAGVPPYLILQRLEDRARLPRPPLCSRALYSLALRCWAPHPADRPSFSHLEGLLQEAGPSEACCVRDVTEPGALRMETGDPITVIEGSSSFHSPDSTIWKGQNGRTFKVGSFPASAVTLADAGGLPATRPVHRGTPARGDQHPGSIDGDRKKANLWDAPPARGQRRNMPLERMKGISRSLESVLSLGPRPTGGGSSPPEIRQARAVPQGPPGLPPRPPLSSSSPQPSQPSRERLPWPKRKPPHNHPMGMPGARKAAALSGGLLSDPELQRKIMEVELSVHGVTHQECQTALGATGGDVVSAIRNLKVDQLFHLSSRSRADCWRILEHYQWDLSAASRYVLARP
As to conditions: TNK1, 10 uM; for remaining activity at 10 µM: read-out: % Enzyme Activity (relative to DMSO controls).

The target of assay [8] is T8, 382 unique human kinases (Homo sapiens, UniProt Q13233).
T8 construct: purchased Reaction Biology (HotSpot contract assay)
As to conditions: kinase MEKK1, compound 10 uM; for remaining activity at 10 µM: read-out: % Enzyme Activity (relative to DMSO controls).

The target in assay [9] is T9, 382 unique human kinases (Homo sapiens, UniProt P42685).
T9 construct: purchased Reaction Biology (HotSpot contract assay)
The note with it: FRK/PTK5, [ATP] 30 µM, compound 10 uM; for remaining activity at 10 µM: read-out: % Enzyme Activity (relative to DMSO controls).

For assay [10], the target named is T10, 382 unique human kinases (Homo sapiens, UniProt P36896).
T10 construct: purchased Reaction Biology (HotSpot contract assay)
T10 sequence (P36896 24-505): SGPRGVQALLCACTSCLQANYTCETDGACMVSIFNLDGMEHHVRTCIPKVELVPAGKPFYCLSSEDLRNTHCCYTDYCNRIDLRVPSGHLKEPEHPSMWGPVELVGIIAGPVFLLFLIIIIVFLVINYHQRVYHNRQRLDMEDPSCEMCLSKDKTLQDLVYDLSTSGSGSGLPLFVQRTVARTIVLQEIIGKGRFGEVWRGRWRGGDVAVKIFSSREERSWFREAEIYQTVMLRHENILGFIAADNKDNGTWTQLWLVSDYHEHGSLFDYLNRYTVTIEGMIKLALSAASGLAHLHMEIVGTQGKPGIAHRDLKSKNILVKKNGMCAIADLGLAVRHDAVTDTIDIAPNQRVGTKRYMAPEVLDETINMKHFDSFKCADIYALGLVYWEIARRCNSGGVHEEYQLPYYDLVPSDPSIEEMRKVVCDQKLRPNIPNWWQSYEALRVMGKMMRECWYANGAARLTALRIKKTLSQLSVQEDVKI
The note with it: ALK4/ACVR1B, 10 uM; for remaining activity at 10 µM: read-out: % Enzyme Activity (relative to DMSO controls).

The target in assay [11] is T11, 382 unique human kinases (Homo sapiens, UniProt Q52WX2).
T11 construct: purchased Reaction Biology (HotSpot contract assay)
The note with it: SBK1, 10 uM; for remaining activity at 10 µM: read-out: % Enzyme Activity (relative to DMSO controls).

In assay [12] the target is T12, 382 unique human kinases (Homo sapiens, UniProt P41279).
T12 construct: purchased Reaction Biology (HotSpot contract assay)
T12 sequence (P41279 whole entry): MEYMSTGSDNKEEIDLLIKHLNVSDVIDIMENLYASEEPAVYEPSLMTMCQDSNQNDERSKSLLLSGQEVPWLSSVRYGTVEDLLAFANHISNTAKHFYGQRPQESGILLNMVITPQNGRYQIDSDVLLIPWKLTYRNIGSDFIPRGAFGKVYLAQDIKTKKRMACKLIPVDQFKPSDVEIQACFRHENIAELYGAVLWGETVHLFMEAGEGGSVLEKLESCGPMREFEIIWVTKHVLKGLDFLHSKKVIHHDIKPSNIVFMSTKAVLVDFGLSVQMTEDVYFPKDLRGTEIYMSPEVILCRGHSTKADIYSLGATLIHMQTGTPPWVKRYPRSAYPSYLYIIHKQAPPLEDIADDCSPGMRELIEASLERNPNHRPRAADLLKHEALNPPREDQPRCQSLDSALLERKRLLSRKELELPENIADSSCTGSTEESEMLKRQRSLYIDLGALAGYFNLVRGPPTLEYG
The note with it: COT1/MAP3K8, 10 uM; for remaining activity at 10 µM: read-out: % Enzyme Activity (relative to DMSO controls).

Assay [13] deals with T13, 382 unique human kinases (Homo sapiens, UniProt P49841).
T13 construct: purchased Reaction Biology (HotSpot contract assay)
T13 sequence (P49841 whole entry): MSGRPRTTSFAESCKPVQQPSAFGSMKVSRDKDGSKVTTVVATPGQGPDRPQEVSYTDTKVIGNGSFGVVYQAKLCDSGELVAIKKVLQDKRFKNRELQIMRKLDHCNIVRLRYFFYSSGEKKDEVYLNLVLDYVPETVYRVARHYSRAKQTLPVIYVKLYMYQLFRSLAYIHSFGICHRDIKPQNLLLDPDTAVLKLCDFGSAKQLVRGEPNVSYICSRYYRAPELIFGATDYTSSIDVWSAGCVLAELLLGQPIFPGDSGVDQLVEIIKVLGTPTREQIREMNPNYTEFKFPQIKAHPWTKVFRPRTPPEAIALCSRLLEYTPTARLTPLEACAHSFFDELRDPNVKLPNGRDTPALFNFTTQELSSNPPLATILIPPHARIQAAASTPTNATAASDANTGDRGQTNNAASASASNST
As to conditions: GSK3b, [ATP] 10 µM, compound 10 uM; for remaining activity at 10 µM: read-out: % Enzyme Activity (relative to DMSO controls).

The target of assay [14] is T14, 382 unique human kinases (Homo sapiens, UniProt P15056, V600E).
T14 construct: purchased Reaction Biology (HotSpot contract assay)
T14 sequence (P15056 whole entry V600E): as the sequence (P15056 whole entry K601E) above, with V600E, E601K counted along it
The note with it: BRAF (V599E), 10 uM; for remaining activity at 10 µM: read-out: % Enzyme Activity (relative to DMSO controls).

The target of assay [15] is T15, 382 unique human kinases (Homo sapiens, UniProt Q9H792).
T15 construct: purchased Reaction Biology (HotSpot contract assay)
T15 sequence (Q9H792 whole entry): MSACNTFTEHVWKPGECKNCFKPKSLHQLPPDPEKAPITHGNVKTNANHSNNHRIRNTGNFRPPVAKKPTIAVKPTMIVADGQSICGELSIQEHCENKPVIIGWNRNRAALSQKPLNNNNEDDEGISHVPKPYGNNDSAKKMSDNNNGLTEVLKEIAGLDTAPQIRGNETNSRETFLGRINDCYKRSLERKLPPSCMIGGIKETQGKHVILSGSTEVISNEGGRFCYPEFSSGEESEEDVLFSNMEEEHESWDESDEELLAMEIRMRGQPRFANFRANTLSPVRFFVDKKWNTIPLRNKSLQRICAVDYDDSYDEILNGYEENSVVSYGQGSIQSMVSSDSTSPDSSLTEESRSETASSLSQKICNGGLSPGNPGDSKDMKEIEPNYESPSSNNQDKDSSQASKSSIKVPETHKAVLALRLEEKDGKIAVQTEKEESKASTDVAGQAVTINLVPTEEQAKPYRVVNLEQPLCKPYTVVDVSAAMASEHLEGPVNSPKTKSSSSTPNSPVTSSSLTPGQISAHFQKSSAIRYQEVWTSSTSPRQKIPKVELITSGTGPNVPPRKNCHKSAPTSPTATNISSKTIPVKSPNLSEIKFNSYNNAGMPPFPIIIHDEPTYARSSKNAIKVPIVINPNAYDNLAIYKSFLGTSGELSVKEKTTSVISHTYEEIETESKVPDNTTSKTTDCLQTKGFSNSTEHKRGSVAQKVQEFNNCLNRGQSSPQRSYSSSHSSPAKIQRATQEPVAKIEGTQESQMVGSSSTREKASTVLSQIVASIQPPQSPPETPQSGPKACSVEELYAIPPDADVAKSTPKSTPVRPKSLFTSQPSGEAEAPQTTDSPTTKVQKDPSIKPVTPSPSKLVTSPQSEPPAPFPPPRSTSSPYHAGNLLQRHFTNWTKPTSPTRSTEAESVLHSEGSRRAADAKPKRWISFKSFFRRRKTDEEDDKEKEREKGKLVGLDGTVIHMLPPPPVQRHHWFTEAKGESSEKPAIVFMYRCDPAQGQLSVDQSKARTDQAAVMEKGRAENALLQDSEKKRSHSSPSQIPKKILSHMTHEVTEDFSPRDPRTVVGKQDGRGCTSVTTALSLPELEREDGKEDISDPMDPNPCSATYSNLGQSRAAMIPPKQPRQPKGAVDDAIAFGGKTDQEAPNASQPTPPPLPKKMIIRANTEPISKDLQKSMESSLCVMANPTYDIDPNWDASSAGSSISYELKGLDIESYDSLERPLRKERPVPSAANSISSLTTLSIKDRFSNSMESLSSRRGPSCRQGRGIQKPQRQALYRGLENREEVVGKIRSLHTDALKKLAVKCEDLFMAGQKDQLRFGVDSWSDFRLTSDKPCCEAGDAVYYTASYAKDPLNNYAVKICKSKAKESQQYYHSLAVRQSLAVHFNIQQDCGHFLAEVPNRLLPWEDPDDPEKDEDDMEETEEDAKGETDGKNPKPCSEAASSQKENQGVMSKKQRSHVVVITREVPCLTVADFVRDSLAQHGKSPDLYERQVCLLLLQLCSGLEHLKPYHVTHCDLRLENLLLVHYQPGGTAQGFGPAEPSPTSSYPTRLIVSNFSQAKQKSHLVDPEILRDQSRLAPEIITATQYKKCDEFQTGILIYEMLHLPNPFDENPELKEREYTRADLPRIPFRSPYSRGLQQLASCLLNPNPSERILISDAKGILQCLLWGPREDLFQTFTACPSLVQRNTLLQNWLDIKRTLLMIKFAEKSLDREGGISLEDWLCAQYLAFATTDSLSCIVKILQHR
As to conditions: PEAK1, [ATP] 30 µM.

[16] abbreviates: compound 10 uM, read-out: % Enzyme Activity (relative to DMSO controls).

T5 sequence (P22607 23-806 V555M): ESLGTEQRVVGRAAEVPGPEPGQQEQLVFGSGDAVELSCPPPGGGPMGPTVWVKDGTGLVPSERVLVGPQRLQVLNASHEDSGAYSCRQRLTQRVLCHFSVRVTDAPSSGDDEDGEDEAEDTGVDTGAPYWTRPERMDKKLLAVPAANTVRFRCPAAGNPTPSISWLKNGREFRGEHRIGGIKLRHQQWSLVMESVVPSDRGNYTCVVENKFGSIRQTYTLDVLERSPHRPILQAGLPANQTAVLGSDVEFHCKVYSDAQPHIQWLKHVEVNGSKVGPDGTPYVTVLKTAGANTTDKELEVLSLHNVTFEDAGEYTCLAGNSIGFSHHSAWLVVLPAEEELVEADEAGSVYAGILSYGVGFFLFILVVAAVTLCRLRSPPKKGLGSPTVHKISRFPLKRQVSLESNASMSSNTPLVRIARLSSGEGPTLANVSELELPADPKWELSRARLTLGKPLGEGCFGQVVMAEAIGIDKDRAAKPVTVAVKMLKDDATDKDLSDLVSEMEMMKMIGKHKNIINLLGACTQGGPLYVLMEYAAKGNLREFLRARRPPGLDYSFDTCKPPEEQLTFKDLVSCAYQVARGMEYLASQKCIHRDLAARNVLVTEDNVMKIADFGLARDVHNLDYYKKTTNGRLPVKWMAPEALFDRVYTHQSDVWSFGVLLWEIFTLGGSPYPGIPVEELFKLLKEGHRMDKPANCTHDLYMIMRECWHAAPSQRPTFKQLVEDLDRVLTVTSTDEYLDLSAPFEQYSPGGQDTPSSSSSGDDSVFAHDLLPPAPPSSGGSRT

Regarding `CC(C)c1cc(-c2n[nH]c(=O)n2-c2ccc3c(ccn3C)c2)c(O)cc1O` [Ganetespib (STA9090)], the remaining activity at 10 µM was 85.7% at 382 unique human kinases [1]; 89.8% at 382 unique human kinases [2]; 74.7% at 382 unique human kinases [3]; 107% on 382 unique human kinases [4]; 65.2% at 382 unique human kinases [5]; 81% at 382 unique human kinases [6]. The values for the remaining activity at 10 µM on 382 unique human kinases [7] and at 382 unique human kinases [8] were 65.8% and 98.3%, respectively.
`CC(C)c1cc(-c2n[nH]c(=O)n2-c2ccc3c(ccn3C)c2)c(O)cc1O` [Ganetespib]: the remaining activity at 10 µM at 382 unique human kinases [9] is 18.1%; on 382 unique human kinases [10], 111%; on 382 unique human kinases [11] it was 99.8%; on 382 unique human kinases [12], 116%; at 382 unique human kinases [13], 29.4%; at 382 unique human kinases [14], 110%. For the same compound, the remaining activity at 10 µM on 382 unique human kinases [15] (setting [16]) was found to be 10.2%. Moreover, on 382 unique human kinases [15] (compound 1 uM, read-out: % Enzyme Activity (relative to DMSO controls)), the remaining activity at 1 µM is 43.5%.
Turning to `CCNC(=O)c1noc(-c2cc(C(C)C)c(O)cc2O)c1-c1ccc(CN2CCOCC2)cc1` [Luminespib (AUY-922)], the “% Enzyme Activity (relative to DMSO controls)” value on 382 unique human kinases [1] is 95.04%; on 382 unique human kinases [2], 97.52%; at 382 unique human kinases [3], 105.20%; at 382 unique human kinases [4], 100.38%; on 382 unique human kinases [5] it was 124.56%; at 382 unique human kinases [6], 109.40%. In addition, the results for the “% Enzyme Activity (relative to DMSO controls)” value at 382 unique human kinases [7] and at 382 unique human kinases [8] were 96.12% and 83.59%, respectively. Besides, the remaining activity at 10 µM worked out at 95.4% on 382 unique human kinases [1]; 99.5% on 382 unique human kinases [2]; 106% at 382 unique human kinases [3]; 101% on 382 unique human kinases [4]; 125% at 382 unique human kinases [5]; 111% on 382 unique human kinases [6]. The remaining activity at 10 µM on 382 unique human kinases [7] is 97.5%; on 382 unique human kinases [8] it was 85.5%.
Turning to `CCNC(=O)c1noc(-c2cc(C(C)C)c(O)cc2O)c1-c1ccc(CN2CCOCC2)cc1` [Luminespib], the “% Enzyme Activity (relative to DMSO controls)” value on 382 unique human kinases [9] is recorded as 63.67%; on 382 unique human kinases [10], 94.12%; on 382 unique human kinases [11], 93.40%; on 382 unique human kinases [12], 93.56%; on 382 unique human kinases [13], 110.01%; on 382 unique human kinases [14], 98.13%. The “% Enzyme Activity (relative to DMSO controls)” value at 382 unique human kinases [15] (compound 10 uM) is 29.19%. Moreover, the remaining activity at 10 µM on 382 unique human kinases [9] turned out to be 64.5%; at 382 unique human kinases [10] it was 95%; at 382 unique human kinases [11] it was 94.6%; on 382 unique human kinases [12], 95.4%; on 382 unique human kinases [13], 110%; at 382 unique human kinases [14], 98.8%. Moreover, the remaining activity at 10 µM at 382 unique human kinases [15] (setting [16]) is 30.1%.
